These results are taken from patent US20150315179A1, “COMPOUNDS AND METHODS OF TREATING NEUROLOGICAL DISORDERS” (Torrey Pines Institute For Molecular Studies, priority 2014, published 2015).

Series [1] relates to 7WD10 (CHO) cells stably expressing APP751. Briefly: SAHA treatment, APP fragments in 7WD10 (CHO) cells. In kind it is cell-based. To be noted: SAHA application. How it is done:
(§1) Western blot sAPPα release assay. 7WD10 cells were grown in 6-well plates and treated with test compounds and SAHA (vorinostat) at several concentrations in duplicate wells. After 24 h of drug exposure, the conditioned media (CM) was collected, centrifuged to remove cell debris and subjected to SDS-PAGE electrophoresis. sAPPα (6E10, mouse IgG from IBL America ltd) was detected using indicated antibody. To detect APP-FL holoprotein and C-terminal fragments (CTFs, CT15 antibody), the cells were lysed using lysis buffer (1% NP40) with complete protease inhibitor mix (Sigma) supplemented with sodium vanadate and microcystine. Samples were subjected to SDS-PAGE, transferred and immunoblotted with indicated antibodies and detected by enhanced chemiluminescence method. Quantification of Western blot signals was done using ImageJ software.
(§2) We utilized a commercially available AlphaLISA detection kit to develop an HTS assay for identification of compounds that increase sAPPα production in CHO cells stably expressing APP751 (7WD10 cells) (FIG. 2.1B). There are several cell lines that have been used extensively in Alzheimer's disease research. For example, NT2 cells are highly used in AD basic and drug discovery research because they are derived from a human embryonal carcinoma cell line and they can be differentiated into post-mitotic neuron-like cells that develop functional dendrites and axons resembling primary neurons of the human brain [39]. NT2 cells also synthesize amyloid precursor protein important in Alzheimer's disease. However, the rate of growth of NT2 cells is much slower than rate of growth of 7WD10s cells, which makes them less HTS-amenable. We have analyzed both 7WD10 and NT2 cells for expression of the hallmark proteins of Alzheimer's disease: soluble APPα, soluble APPβ, Aβ, and membrane-bound full length APP (APP-FL). […] Since it was shown that broad HDAC inhibition results in a decrease of Aβ and an increase of soluble APPα [41] we tested both cell lines for the effect of application of SAHA (suberoylanilide hydroxamic acid or vorinostat), a pan-HDAC inhibitor [42].

The subject of series [2] is NT2 cells stably expressing APP751. The series is described as follows: SAHA treatment, APP fragments in NT2 cells. Format: cell-based, human. Conditions: SAHA application.
Description: as §2

In series [3] the test system is sAPPα release from 7WD10 cells. Briefly: AlphaLISA sAPPα release assay (pilot screen). Format: cell-based. How it is done:
Pilot screen of AlphaLISA sAPPα release assay. 8 μL of assay media (DMEM supplemented with 10% FBS and 1× Penicillin/Streptomycin) containing 20,000 cells were added to all wells of the assay plate, except column 1 where only media was added. Plates were incubated for 4 h at 37° C., 5% CO2, 95% RH after which 80 nL of test compounds in DMSO or DMSO alone were added to respective wells using a pin tool device (VP Scientific, San Diego). After 24 h of incubation at 37° C., 5% CO2, 95% RH, sAPPα AlphaLISA beads were added in 10 μL of buffer, equilibrated for 1 h, and AlphaLISA signal was measured using a Biotek H4 Synergy microplate reader (Biotek Inc). Three parameters were calculated on a per-plate basis: (a) the signal-to-background ratio (S/B); (b) the coefficient for variation [CV; CV=(standard deviation/mean)×100)] for all compound test wells; and (c) the Z′-factor [31]. Nominally active compounds from the pilot screen were determined using mean plus 3 times the standard deviation (Mean+3SD) was used as the cut-off.

For series [4], the system named is sAPPα in supernatants of 7WD10 cells. The series is described as follows: Western blot sAPPα release assay, 7WD10 cells. Conditions: as low as 10 nM, 7WD10 supernatants. Format: cell-based. How it is done: (2). To ascertain that hits identified as a result of AlphaLISA assay are not due to artifacts of the detection system, the sAPPα levels were measured by Western blots as a secondary assay downstream of primary HTS to confirm hits or discard artifacts of the AlphaLISA assay. The assay was performed using a range of concentrations of hit compounds (10-5,000 nM). A hit compound named thiazole piperazine #244 (THPI-244) and THPI-326 induced dose-dependent increase of sAPPα in supernatants of 7WD10 cells (FIG. 1.3). […] Since compound THPI-244 increased sAPPα levels more than THPI-326, we focused on THPI-244 for further validation.
as §1

The next series has as its system sAPPα. Briefly: sAPPα increasing activity of THPI-244 analogs. Format: cell-based. The text has this: (§3) The following table illustrates Chemical structures and properties of THPI-244 analogs selected out of 37 analogs, and each have significant sAPPα increasing activity. Toxicity is the minimum dose for toxicity.
In the next series the test system is TrkA. The series is described as follows: TrkA increase by THPI-244 analogs. In kind it is cell-based.
Description: as §3

Another series can be described thus: BBB of THPI-244 analogs.
Description: as §3

Another series deals with 7WD10 cells. Briefly: CellTiter-Glo cell viability assay. Format: cell-based. To be noted: for viability: 100 μM. As to the method: Cell viability assay. 7WD10 cells were plated in 384-well plates in 8 μL of media. Plates were incubated for 4 and 24 h at 37° C., 5% CO2 and 95% RH. After incubation, 8 μL of CellTiter-Glo® (Promega cat#: G7570) were added to each well, and incubated for 15 min at room temperature. Luminescence was recorded using a Biotek Synergy H4 microplate reader. Viability is expressed as a % relative to wells containing media only (0%) and wells containing cells (100%).
In the absence of known pharmacological agents capable of inducing an increase of sAPPα release, we tested a small molecule (FIG. 2.4A insert, compound 1 in [2]) shown to decrease Aβ release. It was shown that decrease of Aβ release could be accompanied by the increase of soluble APPα, which has a neuroprotective effect. Compound 1 was tested using 20,000 cells/well in the range of 1.2-100 μM using 3-fold serial dilutions and 24 h incubation as an assay endpoint. Increase of sAPPα release was observed only in wells where 100 μM of compound 1 was added either with or without FBS (FIG. 2.4A). Viability of cells was also tested in the presence of 1.2-100 μM of compound 1 to ascertain that the increase of sAPPα release is not due to excessive cell death. Consistent with the above described results, cells were less viable in the absence of FBS. In the presence of 1.2-33 μM of compound 1, cells were approximately 10% less viable than untreated control either with or without FBS (FIG. 2.4B).

The test system of series [5] is sAPPα in conditioned medium of 7WD10 cells. The series is described as follows: sAPPα release ELISA, 7WD10 cells. In kind it is cell-based. Conditions: 24 h. As to the method:
Starting from p-methylbenzhydrylamine hydrochloride (MBHA.HCl) resin; we developed different approaches toward the diversity oriented solid-phase parallel synthesis of different aminothiazole compounds 1-6 (Scheme 1) (Micheals, H A et al., 2014, ACS Comb. Sci. 16, 1-4; Nefzi, A et al., 2010, J. Org. Chem. 75, 7939-7941). 575 thiazole compounds were synthesized and were tested for sAPPα increasing activity using CHO cells stably expressing APP751 wt. For initial screenings we used a cell-based human sAPPα ELISA kit (cat#27734, IBL Co., ltd, Japan) following instructions from the manufacturer. The method involves sandwich ELISA and use of two specific antibodies and tetra methyl benzidine as a coloring agent. […]
sAPPα and Aβ40 release ELISA assay. […] The principle of the method is based on the use of tetra methyl benzidine (TMB) as a chromogen and the strength of the generated color is proportional to the quantities of human sAPPα. […] Plates were incubated with chromogen solution for 30 minutes, and read at 450 nm after adding stop solution. Levels of Aβ40 in the CM treated with different concentrations of compound 1 as detailed above were measured by sandwich ELISA exactly as described previously. Aβ40 was captured with Ab9 antibody (epitope, 1-16 of Aβ40) and detected with horseradish peroxidase-conjugated Ab13.1.1 antibody (epitope, 35-40 of Aβ40).

Series [6] deals with Aβ40 in conditioned medium of 7WD10 cells. Briefly: Aβ40 release ELISA, 7WD10 cells. Format: cell-based. The text has this: sAPPα and Aβ40 release ELISA assay. 7WD10 cells stably expressing APP751 were used for the detection of sAPPα in the conditioned medium (CM). For the detection of sAPPα, human sAPPα assay kit from IBL (Immuno-Biological Laboratories Co., Ltd, cat #27734) was used. The kit is a solid phase sandwich ELISA using two different antibodies. The principle of the method is based on the use of tetra methyl benzidine (TMB) as a chromogen and the strength of the generated color is proportional to the quantities of human sAPPα. Briefly, cells were grown in 6-well plates and treated with compound 1 at 0, 50, 75, 100, 125 and 150 μM final concentrations. After 24 hours of compound exposure, the CM was collected, centrifuged to remove cell debris and used in the assay. 100 μL of EIA buffer was used as blank. The 100 μL of test samples were put in to each well and incubated the precoated plate overnight at […] covered with plate lid. After overnight incubation, wells were vigorously washed with wash buffer several times. Then 100 μL of labeled antibody was added, incubated at 40 C for 30 minutes and washed again several times. Plates were incubated with chromogen solution for 30 minutes, and read at 450 nm after adding stop solution. Levels of Aβ40 in the CM treated with different concentrations of compound 1 as detailed above were measured by sandwich ELISA exactly as described previously. Aβ40 was captured with Ab9 antibody (epitope, 1-16 of Aβ40) and detected with horseradish peroxidase-conjugated Ab13.1.1 antibody (epitope, 35-40 of Aβ40).

Each structure is given as a SMILES string.

Regarding `O=C(CCCCCCC(=O)Nc1ccccc1)NO` [SAHA, suberoylanilide hydroxamic acid], in [1], the Aβ result was “decrease”, the “levels of APP-FL” value was “not affected” and the sAPPβ result is “decrease”. Besides, in series [2], the Aβ result is on record as “decrease”, the “levels of APP-FL” value is recorded as “not affected” and the sAPPβ entry was “decrease”.

As for `CCC(C)C(=O)N1CCN(Cc2csc(NC[C@H](Cc3ccc(O)cc3)NC(=O)Cc3ccccc3)n2)CC1` (stereo partly drawn) [THPI-326], the “increase of Alpha signal (sAPPα release)” value in [3] (5 μM, 7WD10 cells, 24 h) is recorded as around 2 fold. Moreover, the “increase of sAPPα over untreated control cells” value in [4] amounted to 2 fold.

Regarding `Cc1cnc(C(=O)N[C@H](CNc2nc(CN3CCNCC3)cs2)c2ccccc2)cn1` [TPI-2336-55], the “% sAPPα ↑” value with sAPPα is given as 217%. Also, the “% TrkA ↑” value with TrkA came out at 69%. For the same compound, the “% BBB” value in the series “BBB of THPI-244 analogs” stood at 1.0%.

Regarding `c1ccc(CCNc2nc(CN3CCOCC3)cs2)cc1` [TPI-2336-99], the “% sAPPα ↑” value in the series on sAPPα worked out at 160%. Further, the “% TrkA ↑” value in the series on TrkA came out at 51%. Further, the “% BBB” value in “BBB of THPI-244 analogs” amounted to 5.6%.

For `c1ccc(CCNc2nc(CN3CCCCC3)cs2)cc1` [TPI-2336-100], the “% sAPPα ↑” value in the series with sAPPα turned out to be 166%. Further, the “% TrkA ↑” value in the series on TrkA is 54%. Moreover, the “% BBB” value in the series “BBB of THPI-244 analogs” is listed as 5.9%.

As to `O=C(NCCSCc1cccc(Cl)c1)c1c(Cl)cccc1Cl` [compound 1, 2,6-dichloro-N-{2-[(3-chlorobenzyl)thio]ethyl}benzamide], the “increase of AlphaLISA signal” value in [3] (100 μM compound 1, assay development and pilot screen) is reported as 2 fold. Further, the “concentration at which increase of sAPPα release was observed” value in series [3] (tested 1.2-100 μM, 20,000 cells/well, 24 h, with or without FBS) came to 100 µM. The viability with 7WD10 cells (with FBS) is given as around 70%; in the series with 7WD10 cells (without FBS), around 40%. In addition, the “loss of viability versus untreated control” value with 7WD10 cells (1.2-33 μM, with or without FBS) is “approximately 10%”. Further, in [5] (100 μM), the “increase of sAPPα over untreated control cells” value is given as 2 fold. In [5] (150 μM), the “maximal effect, increase of sAPPα” value came to 3 fold. Moreover, the results for the “decrease of Aβ40 supernatant levels” value in series [6] (100 μM), in series [6] (125 μM) and in series [6] (150 μM) were 24%, 43% and 49%, respectively.
